Reference: patent US8518942B2, “Caspase inhibitors and uses thereof” (Buck Institute for Research on Aging, priority 2008, dated 2013)

Tests used:
Format in all cases: biochemical
caspase-9 = biological target: T1, caspase-9 (Homo sapiens, UniProt P55211); test: Irreversible inhibitor kinetic assay (progress curve), caspase-9, substrate Ac-LEHD-AFC; conditions: casp-9; duplicate, SD included
T1 construct: gift: Guy Salvesen's laboratory, Burnham Institute (La Jolla, Calif.)
T1 sequence (P55211 1-315 limits assumed): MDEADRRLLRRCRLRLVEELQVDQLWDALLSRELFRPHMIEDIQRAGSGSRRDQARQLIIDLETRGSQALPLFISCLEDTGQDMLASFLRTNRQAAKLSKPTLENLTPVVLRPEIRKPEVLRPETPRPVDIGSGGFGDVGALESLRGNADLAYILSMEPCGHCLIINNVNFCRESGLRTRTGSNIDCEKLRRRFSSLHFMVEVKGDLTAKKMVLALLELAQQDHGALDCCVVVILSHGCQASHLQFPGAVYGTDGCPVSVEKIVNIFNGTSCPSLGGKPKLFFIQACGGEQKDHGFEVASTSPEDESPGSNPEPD
T1 sequence (P55211 331-416 limits assumed): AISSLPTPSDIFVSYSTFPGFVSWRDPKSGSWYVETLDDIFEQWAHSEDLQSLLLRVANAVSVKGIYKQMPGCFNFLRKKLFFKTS
From the text: (§1) Caspases-3, -6, -7, -8, and -9 were provided by Guy Salvesen's laboratory at the Burnham Institute (La Jolla, Calif.). Caspase-1 was purchased from EMD Biosciences (San Diego, Calif.) and Caspase-2 was purchased from Biomol International (Plymouth Meeting, Pa.). Caspase substrates Ac-DEVD-AMC, Ac-VDVAD-AFC, and Ac-LEHD-AFC were purchased from EMD Biosciences (San Diego, Calif.) and Ac-VDVAD-AMC was purchased from Biomol International (Plymouth Meeting, Pa.). The proteolytic cleavage of N-acyl aminocoumarins by caspases was conducted in Dynatech Microfluor fluorescence 96-well microtiter plates, and readings were taken on a Molecular Devices Spectra Max Gemini XS instrument. The excitation wavelength was 370 nm and the emission wavelength was 455 nm for AMCA substrates, the excitation wavelength was 355 nm and the emission wavelength was 450 nm for peptidyl AMC substrates, and the excitation wavelength was 430 nm and the emission wavelength was 535 nm for peptidyl AFC substrates.
(§2) The kinact/Ki for inhibitors were determined under pseudo-first order conditions using the progress curve method (Eckici et al. (2006) J. Med. Chem., 49: 5728-5749; Bieth (1995) Meth. Enzymol., 248: 59-84). Assay wells contained a mixture of inhibitor and AMC or AFC substrate in buffer. Aliquots of caspase were added to each well to initiate the assay. Hydrolysis of the AMC or AFC substrate was monitored fluorometrically for 45 min. To determine the inhibition parameters, time points for which the control ([I]=0) was linear were used. For each inhibitor, a kobs was calculated for at least four different concentrations of inhibitors via a nonlinear regression of the data according to the equation P=(vi/kobs)[1−exp(−kobst) (where product formation=P, […], and the first-order rate constant=kobs). If kobs varied linearly with [I], then the association constant kass was determined by linear regression analysis using kobs=(kass[I])/(1+[S]/Km) where [S] is the concentration of the substrate. […] Inhibition was measured in duplicate and the average of is reported. […]

Caspase 3 = biological target: T2, Caspase 3 (Homo sapiens, UniProt P42574); test: Blots of full-length huntingtin (23Q & 148Q) treated with Caspase 3 plus inhibitor; conditions: for Proteolysis of Htt at amino acid 513 (caspase-3 site): 1-100 nM; for Inhibition of Caspase 3 cleavage of full-length huntingtin (blot): 23Q & 148Q, at 0.1 μM, 1.0 μM and 10 μM; for Blocking the cleavage of Htt at amino acid 513 mediated by caspase-3: conclusion
T2 sequence (P42574 29-175 limits assumed): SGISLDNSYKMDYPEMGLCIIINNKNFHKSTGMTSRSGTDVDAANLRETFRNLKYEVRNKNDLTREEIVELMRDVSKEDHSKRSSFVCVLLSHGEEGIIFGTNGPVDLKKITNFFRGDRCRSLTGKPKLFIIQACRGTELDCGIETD
T2 sequence (P42574 176-277 limits assumed): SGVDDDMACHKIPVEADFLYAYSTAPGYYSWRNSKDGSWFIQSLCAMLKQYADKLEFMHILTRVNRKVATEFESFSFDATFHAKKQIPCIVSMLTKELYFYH

caspase-1 = biological target: T3, caspase-1 (Homo sapiens, UniProt P29466); test: Irreversible inhibitor kinetic assay (progress curve), caspase-1, substrate Ac-WEHD-AMC; conditions: casp-1; duplicate, SD included
T3 construct: purchased EMD Biosciences (San Diego, Calif.)
T3 sequence (P29466 120-297 limits assumed): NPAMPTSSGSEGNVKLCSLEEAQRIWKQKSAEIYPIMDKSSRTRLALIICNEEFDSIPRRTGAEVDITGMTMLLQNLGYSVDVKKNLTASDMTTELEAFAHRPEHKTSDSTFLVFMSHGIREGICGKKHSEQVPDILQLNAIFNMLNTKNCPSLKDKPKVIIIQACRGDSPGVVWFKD
T3 sequence (P29466 317-404 limits assumed): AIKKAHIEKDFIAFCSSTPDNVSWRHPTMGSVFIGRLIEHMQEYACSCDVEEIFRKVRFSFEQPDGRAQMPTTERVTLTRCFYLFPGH
From the text: as §1, §2

## C[C@@](NS(=O)(=O)Cc1ccccc1)(c1cn([C@@H](CC(=O)O)C(=O)COc2c(F)c(F)cc(F)c2F)nn1)C1CCCCC1 [MJL-001i]
caspase-9
  kinact/Ki: 18,250 ± 4,050 s^−1/M^−1
Caspase 3
  Proteolysis of Htt at amino acid 513 (caspase-3 site): blocked
  Inhibition of Caspase 3 cleavage of full-length huntingtin (blot): inhibition
  Blocking the cleavage of Htt at amino acid 513 mediated by caspase-3: affective at blocking
caspase-1
  kinact/Ki: 55,200 ± 2,600 s^−1/M^−1

## C[C@@](NC(=O)CCCC(=O)O)(c1cn([C@@H](CC(=O)O)C(=O)COc2c(F)c(F)cc(F)c2F)nn1)C1CCCCC1 [MJL-002i]
caspase-9
  kinact/Ki: 7,550 ± 1,650 s^−1/M^−1
Caspase 3
  Proteolysis of Htt at amino acid 513 (caspase-3 site): blocked
  Inhibition of Caspase 3 cleavage of full-length huntingtin (blot): inhibition
  Blocking the cleavage of Htt at amino acid 513 mediated by caspase-3: affective at blocking
caspase-1
  kinact/Ki: 243,250 ± 350 s^−1/M^−1

## C[C@@](NC(=O)Cc1ccccc1)(c1cn([C@@H](CC(=O)O)C(=O)COc2c(F)c(F)cc(F)c2F)nn1)C1CCCCC1 [MJL-003i]
caspase-9
  kinact/Ki: 28,100 ± 2,500 s^−1/M^−1
Caspase 3
  Proteolysis of Htt at amino acid 513 (caspase-3 site): blocked
  Inhibition of Caspase 3 cleavage of full-length huntingtin (blot): inhibition
  Blocking the cleavage of Htt at amino acid 513 mediated by caspase-3: affective at blocking
caspase-1
  kinact/Ki: 55,200 ± 200 s^−1/M^−1
